Test: Photostability of BMDBM/OMC compositions in acetonitrile under UV irradiation, with and without APP analogue
Assay type: physicochemical
Settings: no APP
Protocol: Comparisons were performed to evaluate the abilities of APP derivatives of Formula I, Ia, Ib, Ic, Id, Ie, If, or combination thereof to photostabilize photoactive compounds. UV light exposure is often measured in MED rather than a measurement of time. MED relates to the minimal dosage of UV exposure required to result in redness 24 hours after exposure. Although technically an individualized measurement that would vary depending on the sensitivity of an individual's skin, MED measurements have been standardized with the advent of UV bulbs and lamps. FIG. 1 illustrates the photoinstability of a composition containing BMDBM and OMC. […] Absorption was measured for wavelengths 250 nm to 500 nm in length. BMDBM absorbs wavelengths around 375 nm in length, which can be seen as a distinct peak on the line illustrating the composition which was not irradiated with UV light. […] FIG. 2 illustrates the photostabilization of a photoactive composition by the addition of an APP analogue of Formula I. […] The APP analogue was a 1:1 blend of Formula Ia and Formula Ib. […] FIG. 3 illustrates the percentage of BMDBM remaining in compositions after irradiation with 15 MED of UV light. […] The APP analogue was a 1:1 blend of Formula Ia and Formula Ib.

SMILES: COc1ccc(C(=O)CC(=O)c2ccc(C(C)(C)C)cc2)cc1 [BMDBM, 4-tert-butyl-4-methoxy-dibenzoylmethane]
- BMDBM absorption peak at 375 nm after UV irradiation (acetonitrile solution, 10 ppm BMDBM and 10 ppm OMC, 15 MED versus 0 MED, FIG. 1): substantially diminished
- percentage of BMDBM remaining capable of absorbing light at 375 nm after irradiation (composition of 10 ppm BMDBM and 10 ppm OMC, 15 MED of UV light, FIG. 3): 2.9%
